Reference: patent US20060148858A1, “1, 2-Azole derivatives with hypoglycemic and hypolipidemic activity” (priority 2002, published 2006)

How the values were obtained:
[1] = target: T1, PPARγ-RXRα heterodimer (Homo sapiens, UniProt P37231); test: PPARγ-RXRα heterodimer ligand activity, luciferase reporter in PPARγ:RXRα:4ERPP/CHO-K1 cells (Test Example 3); assay type: cell-based; conditions: 18-48 hours, concentration for 50% of the maximum fold induction
T1 construct: expressed in transfected cells; host or cells: CHO-K1
T1 sequence (P37231 1-477 isoform P37231-2): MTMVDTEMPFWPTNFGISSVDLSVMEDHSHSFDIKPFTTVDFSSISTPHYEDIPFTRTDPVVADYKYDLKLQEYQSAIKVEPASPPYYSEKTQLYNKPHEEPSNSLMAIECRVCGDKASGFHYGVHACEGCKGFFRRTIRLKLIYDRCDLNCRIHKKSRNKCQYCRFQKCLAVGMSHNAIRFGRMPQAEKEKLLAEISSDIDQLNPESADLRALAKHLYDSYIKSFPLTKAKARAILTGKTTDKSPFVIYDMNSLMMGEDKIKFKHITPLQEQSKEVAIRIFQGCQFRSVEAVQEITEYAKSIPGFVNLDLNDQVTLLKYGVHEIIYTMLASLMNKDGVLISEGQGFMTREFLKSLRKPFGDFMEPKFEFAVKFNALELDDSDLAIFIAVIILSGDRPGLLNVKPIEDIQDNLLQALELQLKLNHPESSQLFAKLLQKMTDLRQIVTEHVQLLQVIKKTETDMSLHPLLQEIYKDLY
T1 sequence (P19793 1-462 partner): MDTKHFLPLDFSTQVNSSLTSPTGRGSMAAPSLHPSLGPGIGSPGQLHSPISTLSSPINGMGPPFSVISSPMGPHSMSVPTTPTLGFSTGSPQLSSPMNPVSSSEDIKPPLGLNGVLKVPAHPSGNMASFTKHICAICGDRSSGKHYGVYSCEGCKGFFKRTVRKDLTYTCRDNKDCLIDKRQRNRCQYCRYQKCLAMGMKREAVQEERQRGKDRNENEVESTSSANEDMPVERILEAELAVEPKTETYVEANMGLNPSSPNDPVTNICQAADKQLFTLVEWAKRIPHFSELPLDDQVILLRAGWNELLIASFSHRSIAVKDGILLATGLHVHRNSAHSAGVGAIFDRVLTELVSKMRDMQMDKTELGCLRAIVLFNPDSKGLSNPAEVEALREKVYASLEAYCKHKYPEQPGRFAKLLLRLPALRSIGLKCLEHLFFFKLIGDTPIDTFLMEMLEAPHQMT
Procedure, shortened: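 Stable CHO-K1 line co-expressing hPPARγ/RXR with 4ERPP-TK luciferase reporter, 2×10^4 cells per well, treated 18-48 h at 37° C. in HAM F12 with 0.1% fatty acid-free BSA. Luciferase fold induction versus untreated taken as 1; EC50 is concentration giving 50% of maximal fold induction.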

CC(C)c1nn(-c2ccc(C(F)(F)F)cn2)cc1CCCOc1cc(CCC(=O)O)n(-c2ccccc2)n1 [Example 24, 3-[3-(3-{3-isopropyl-1-[5-(trifluoromethyl)-2-pyridyl]-1H-pyrazol-4-yl}propoxy)-1-phenyl-1H-pyrazol-5-yl]propionic acid]
EC50 [1]: 38 nM | melting point: 139 to 140 °C

CCOc1nn(-c2ccc(C(F)(F)F)cn2)cc1CCCOc1cccc(CC(=O)O)c1 [Example 30, [3-(3-{3-ethoxy-1-[5-(trifluoromethyl)-2-pyridyl]-1H-pyrazol-4-yl}propoxy)phenyl]acetic acid]
EC50 [1]: 210 nM | melting point: 134 to 135 °C

CCOc1nn(-c2ccc(C(F)(F)F)cn2)cc1CCCOc1ccccc1CC(=O)O [Example 31, (2-(3-{3-ethoxy-1-[5-(trifluoromethyl)-2-pyridyl]-1H-pyrazol-4-yl}propoxy)phenyl]acetic acid]
EC50 [1]: 35 nM | melting point: 83 to 84 °C

CCOc1nn(-c2ccc(C(F)(F)F)cn2)cc1CCCOc1cc(CCC(=O)O)n(-c2ccccc2)n1 [Example 42, 3-[3-(3-{3-ethoxy-1-[5-(trifluoromethyl)-2-pyridyl]-1H-pyrazol-4-yl}propoxy)-1-phenyl-1H-pyrazol-5-yl]propionic acid]
EC50 [1]: 19 nM | melting point: 121 to 122 °C

CCCc1nn(-c2ccc(C(F)(F)F)cn2)cc1CCCOc1cc(CCC(=O)O)n(-c2ccccc2)n1 [Example 43, 3-[1-phenyl-3-(3-{3-propyl-1-[5-(trifluoromethyl)-2-pyridyl]-1H-pyrazol-4-yl}propoxy)-1H-pyrazol-5-yl]propionic acid]
EC50 [1]: 53 nM | melting point: 149 to 150 °C

CCCc1nn(-c2ccc(C(F)(F)F)cn2)cc1CCCCOc1cc(CCC(=O)O)n(-c2ccccc2)n1 [Example 58, 3-[1-phenyl-3-(4-{3-propyl-1-[5-(trifluoromethyl)-2-pyridinyl]-1H-pyrazol-4-yl}butoxy)-1H-pyrazol-5-yl]propanoic acid]
EC50 [1]: 43 nM | melting point: 123 to 124 °C

CCCc1nn(-c2ccc(C(F)(F)F)cn2)cc1CCCOc1ccc(CCC(=O)O)c(OCC)c1 [Example 98, 3-[2-ethoxy-4-(3-{3-propyl-1-[5-(trifluoromethyl)-2-pyridinyl]-1H-pyrazol-4-yl}propoxy)phenyl]propanoic acid]
EC50 [1]: 110 nM | melting point: 119 to 120 °C

CCOc1nn(-c2ccc(C(F)(F)F)cn2)cc1CCCCOc1cc(CCC(=O)O)n(-c2ccccc2)n1 [Example 104, 3-[3-(4-{3-ethoxy-1-[5-(trifluoromethyl)-2-pyridinyl]-1H-pyrazol-4-yl}butoxy)-1-phenyl-1H-pyrazol-5-yl]propanoic acid]
EC50 [1]: 34 nM | melting point: 138 to 139 °C

CCOc1nn(-c2ccc(C(F)(F)F)cn2)cc1CCCOc1ccc(CCC(=O)O)c(OC(C)C)c1 [Example 116, 3-[4-(3-{3-ethoxy-1-[5-(trifluoromethyl)-2-pyridinyl]-1H-pyrazol-4-yl}propoxy)-2-isopropoxyphenyl]propanoic acid]
EC50 [1]: 82 nM | melting point: 104 to 105 °C

O=C(O)CCc1cc(OCCCc2cn(-c3ccc(C(F)(F)F)cn3)nc2-c2ccccc2)nn1-c1ccccc1 [Example 125, 3-[1-phenyl-3-(3-{3-phenyl-1-[5-(trifluoromethyl)-2-pyridyl]-1H-pyrazol-4-yl}propoxy)-1H-pyrazol-5-yl]propionic acid]
EC50 [1]: 26 nM | melting point: 175 to 176 °C

CCOc1nn(-c2ccc(C(F)(F)F)cn2)cc1CCCCOc1ccccc1CC(=O)O [Example 137, [2-(4-{3-ethoxy-1-[5-(trifluoromethyl)-2-pyridyl]-1H-pyrazol-4-yl}butoxy)phenyl]acetic acid]
EC50 [1]: 35 nM | melting point: 109 to 110 °C

COc1cccc(CC(=O)O)c1OCCCc1cn(-c2ccc(C(F)(F)F)cn2)nc1C(C)C [Example 181, [2-(3-{3-isopropyl-1-[5-(trifluoromethyl)-2-pyridyl]-1H-pyrazol-4-yl}propoxy)-3-methoxyphenyl]acetic acid]
EC50 [1]: 75 nM | melting point: 142 to 143 °C
